Experiments:
[1] = test system: clinical isolates of T. rubrum; assay: Cell survival assay, clinical isolates of T. rubrum plated after 72 h with HXL008; type: cell-based, Trichophyton rubrum; details: 72 h with HXL008 (100 g/mL, 100 μM elsewhere in the source), 5 days at 30° C.
Procedure: FIGS. 3(a) through (e) are photographic representations of surviving colonies of T. rubrum grown on agar plates after treatment with 100 μM HXL008 for 72 h. Panels (a) to (d) represent clinical isolates 14-01, 14-02, 14-03 and 13-04, respectively. Surviving colonies are marked with a black rectangle. Panel (e) represents the growth of T. rubrum that has not been treated with HXL008.
After incubation for 72 h, the media from wells containing clinical isolates of T. rubrum incubated with 100 […] HXL008 was plated onto fresh Sabouraud dextrose agar. Plates were incubated at 30° C. for 5 days to allow colonies to develop before being photographed.

[2] = type: in vitro ADME, Human
Procedure: Penetration of NaD1 through human nails was measured according to the method of Hui et al. (2002) J Pharm Sci 91(1):189-195. Human toenails were obtained from ScienceCare (USA) and washed with phosphate buffered saline (details, PBS) before being placed on a kimwipe that had been soaked in PBS for 3 h to rehydrate the nail. The nail was then placed in a plastic nail adapter with a dosing area of 0.5×0.5 cm (Permagear, USA) and a cotton bud wetted with 75 microlitres of PBS was placed in the receptor chamber in contact with the underside of the nail.
The cotton bud in contact with the underside of the nail was removed after 24 h and every 24 h following. Protein that had passed through the nail was recovered from the cotton bud by washing twice with 500 μL of 0.1% v/v trifluoroacetic acid. Recovered protein was quantified using RP-HPLC.

Escherichia coli = assay: Inhibition of the growth of Escherichia coli; type: cell-based; details: 0.1625-10 μM, 18 hours, 37° C.
Procedure: A single E. coli colony was used to inoculate 5 ml of Luria-Bertani media and grown overnight at 37° C. The following day, the optical density of the culture was measured and the E. coli diluted to an optical density at 600 nm (OD600) of 0.01 in Mueller-Hinton Broth. Diluted E. coli were added to 96-well plates with defensins at concentrations of 10 μM, 5 μM, 2.5 μM, 1.25 μM, 0.625 μM, 0.3125 μM or 0.1625 μM. Plates were read at OD595 to obtain time zero data points. Plates were incubated at 37° C. for 18 hours before reading again at OD595 to assess the amount of E. coli growth.

[3] = test system: Human monocytic lymphoma (U937) cells; type: cell-based
Procedure: Human monocytic lymphoma (U937) cells are cultured in RPMI-1640 medium. All culture media are supplemented with 5-10% v/v fetal calf serum, 100 U/ml of penicillin, and 100 μg/ml of streptomycin. Cell lines are cultured at 37° C. in a humidified atmosphere containing 5% v/v CO2. Adherent cell lines are detached from the flask by adding a mixture containing 0.25% v/v trypsin and […]. A flow cytometry-based propidium iodide (PI) uptake assay is performed to analyze the ability of plant defensins to permeabilize U937 cells (essentially as described in Poon et al, 2014). Briefly, cells are suspended to 1×10^6 cells/ml in 0.1% v/v BSA/RPMI-1640 and incubated with plant defensins (10 μM) at 37° C. for 30 min. Samples are added to PBS containing a final concentration of 1 μg/ml PI and placed on ice. Samples are then analyzed immediately using the BD FACSCanto II Flow Cytometer and BD FACSDiva software v6.1.1. The resultant flow cytometry data is analyzed using FlowJo software v8.8.6. Cells are gated appropriately based on forward scatter and side scatter and cell permeabilization is defined by PI-positive staining.

Trichophyton rubrum = assay: Inhibition of growth of Trichophyton rubrum over 28 days, daily dosing; type: cell-based
Procedure: The inhibitory effect of HXL008 on the growth of Trichophyton rubrum (obtained from the National Mycology Reference Centre, South Australia Pathology at the Women's and Children's Hospital, Adelaide, Australia) was monitored over 28 days.
Spores of T. rubrum, are isolated from sporulating fungus growing on ½ strength Sabouraud dextrose agar. Spores are removed from the plates by the addition of ½ strength potato dextrose broth (PDB). Spore and cell concentrations are measured using a hemocytometer.
Spores were diluted to a concentration of 5×10^4 spores/mL in ½ PBD (2 mL) containing 0, 10 or 50 μg/mL HXL008. Cultures are incubated at 30 C without shaking. After 24 h, 100 μL of each culture is extracted and plated onto ½ SDA plates. An additional 100 uL of ½ PDB is then added containing either 0, 20 or 100 μg of HXL008. SDA plates are then incubated at 30 C for 5 days. This process is repeated every 24 h for 28 days. After 15 days, the culture containing no HXL008 becomes too thick to pipette and is no longer used in the assay.

[4] = test system: Trichophyton rubrum, T. interdigitale, Microsporum fulvum and C. albicans; assay: Inhibition assays summarised across the range of fungal pathogens; type: cell-based; details: summary of Table 3
Procedure: The inhibitory effects of the plant defensins on the growth of Trichophyton rubrum, T. interdigitale, Microsporum fulvum and C. albicans (obtained from the National Mycology Reference Centre, South Australia Pathology at the Women's and Children's Hospital, Adelaide, Australia) are measured essentially as described by Broekaert et al. (1990) FEMS Microbiol Lett 69:55-59. Spores of T. rubrum, T. interdigitale and M. fulvum are isolated from sporulating fungus growing on 1⁄2 strength Sabouraud dextrose agar (SDA). Spores were removed from the plates by the addition of 1⁄2 strength potato dextrose broth (PDB). C. albicans cells are grown in Yeast Peptone Broth (YPD) for 16 h. Spore and cell concentrations are measured using a hemocytometer. Antifungal assays are conducted in 96 well microtitre plates essentially as herein described. Wells are loaded with 20 μL of filter sterilized (0.22 μm syringe filter, Millipore) defensin (10× stock for each final concentration) or water and 80 μL of 5×10^4 spores/mL (T. rubrum, T, interdigitale, M. fulvum) or 5,000 cells/mL (C. albicans) in 1⁄2 strength PDB. The plates are incubated at 30° C. Fungal growth is assayed by measuring optical density at 595 nm ([…]) using a microtitre plate reader (SpectraMax Pro M2; Molecular Devices. Growth is allowed to proceed until the optical density (OD) of the fungus in the absence of any test defensin reached an OD of 0.2. Each test is performed in duplicate.

In the case of “HXL008: Class I plant defensin from Picramnia pentandra, SEQ ID NO: 1 (KVCTKPSKFFKGLCGTDGACTTACRKEGLHSGYCQLKGFLNSVCVCRKHC; HXL008 Picramnia pentandra)”, the “Surviving colonies on agar plates after incubation with HXL008” value [1] is reported as 1-3 colonies, the “Nail penetration, result in words” value [2] is reported as “able to penetrate nails faster and more effectively than the active ingredients of current topical onychomycosis therapies” and the “Growth of E. coli in the presence of defensin” value (Escherichia coli) is reported as “did not inhibit growth of E. coli at the concentrations tested”. The “U937 cells permeabilized (PI-positive)” value [3] was “less than 2%”, the “Visible growth of T. rubrum in culture” value (Trichophyton rubrum; 10 μg/mL or 50 μg/mL, over the duration of the assay (28 days)) was “did not display any visible growth” and the “T. rubrum cells killed” value (Trichophyton rubrum; HXL008 50 μg/mL, within 24 h) was “more than 80%”. The “Surviving colonies per plate” value (Trichophyton rubrum; after 20 days of treatment, 100 μL plated) was 0 or only 1 and the “Antifungal activity across the range of fungal pathogens, result in words” value [4] was “most effective plant defensins across the range of fungal pathogens”.

— patent US11446354B2, “Method of treatment” (Hexima Limited, priority 2014, dated 2022)
